In brackets after ≈: the same amount, converted by molar mass.
How the values were obtained:
[1] = test system: Lanosterol 14α-demethylase (LMD, CYP51A1); assay: LDM (CYP51A1) inhibition by LC-MS-MS quantification of ergosterol level; type: cell-based
Description: (§1) The activity of the target compounds was tested against Candida strains via the determination of ergosterol production.
(§2) Ergosterol level was determined using the extract of total sterols from C. albicans (and its other species) following the method described by Breivik and Owades.[63] Quantification of the ergosterol level in this extract was carried out by the recently described method.[58],[64]−[66] According to these described studies, in the current work, compounds 4b, 4e, 4f, and 4h–m were undertaken to investigate their action mechanism. Thus, the LC-MS-MS-based method that quantifies the ergosterol level was applied. […]. Ergosterol quantity in negative control samples was regarded as 100%. All concentrations were analyzed in quadruplicate, and the results were expressed as mean ± standard deviation (SD).

[2] = molecular target: T1, human aromatase enzyme (CYP19A) (Homo sapiens, UniProt P11511); assay: Aromatase (CYP19A) Inhibitor Screening Kit (Fluorometric); type: biochemical
T1 construct: purchased Bio Vision
T1 sequence (P11511 1-503): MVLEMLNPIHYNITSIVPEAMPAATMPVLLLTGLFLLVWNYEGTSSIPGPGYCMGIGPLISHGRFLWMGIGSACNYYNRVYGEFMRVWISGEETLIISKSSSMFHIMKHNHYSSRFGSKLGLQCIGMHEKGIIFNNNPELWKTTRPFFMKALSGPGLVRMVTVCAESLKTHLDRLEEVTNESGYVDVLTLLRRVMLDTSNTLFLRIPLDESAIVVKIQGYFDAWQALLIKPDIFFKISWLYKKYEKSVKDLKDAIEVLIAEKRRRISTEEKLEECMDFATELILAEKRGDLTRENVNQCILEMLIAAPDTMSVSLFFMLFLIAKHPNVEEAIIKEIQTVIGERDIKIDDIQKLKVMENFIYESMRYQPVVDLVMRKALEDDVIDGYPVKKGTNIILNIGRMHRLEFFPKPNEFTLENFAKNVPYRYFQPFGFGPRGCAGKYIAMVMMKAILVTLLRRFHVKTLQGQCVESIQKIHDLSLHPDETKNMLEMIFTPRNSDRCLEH

C. glabrata ATCC 90030 = assay: Anticandidal broth microdilution (EUCAST EDef 7.1), MIC90; type: cell-based, Candida glabrata; conditions: Nakaseomyces glabratus, ATCC90030, C. glabrata ATCC 90030
Excerpt: (§3) E. coli (ATCC 35218), E. coli (ATCC 25922), S. aureus (ATCC 6538), methicillin-resistant S. aureus (MRSA) (clinical isolate), S. typhimurium (ATCC 13311), and K. pneumoniae (NCTC 9633) cells for antibacterial effect, and C. albicans (ATCC 24433), C. glabrata (ATCC 90030), C. krusei (ATCC 6258), and C. parapsilosis (ATCC 22019) for the antifungal effect of the final compounds were used to determine the MIC90 values. The broth microdilution procedure specified in the M07-A9 document of the Clinical and Laboratory Standards Institute (CLSI) was used for antibacterial study,[55] and the EDef 7.1 document published by EUCAST was used for the antifungal study.[56] For both activity studies, the detailed procedures were explained in previous studies.[57],[58]

[3] = test system: Escherichia coli ATCC 35218; assay: Antibacterial broth microdilution (CLSI M07-A9), MIC90; type: cell-based; conditions: Escherichia coli, ATCC35218; E. coli ATCC 35218
Excerpt: (§4) The broth microdilution procedure specified in the M07-A9 document of the Clinical and Laboratory Standards Institute (CLSI) was used for antibacterial study,[55] and the EDef 7.1 document published by EUCAST was used for the antifungal study.[56] For both activity studies, the detailed procedures were explained in previous studies.[57],[58]

[4] = test system: Klebsiella pneumoniae NCTC 9633; assay: as above; type: cell-based; conditions: NCTC9633, K. pneumoniae NCTC 9633
Excerpt: as §4

E. coli ATCC 25922 = assay: as above; type: cell-based; conditions: Escherichia coli, ATCC25922
Excerpt: as §4

[5] = test system: methicillin-resistant S. aureus (MRSA) (clinical isolate); assay: as above; type: cell-based; conditions: Staphylococcus aureus
Excerpt: as §4

[6] = test system: Salmonella typhimurium ATCC 13311; assay: as above; type: cell-based; conditions: Salmonella enterica; S. typhimurium ATCC 13311
Excerpt: as §4

[7] = test system: Staphylococcus aureus ATCC 6538; assay: as above; type: cell-based; conditions: Staphylococcus aureus, ATCC6538; S. aureus ATCC 6538; read-out: MIC90
Excerpt: as §4

NIH/3T3 cells = assay: Cytotoxicity on NIH/3T3 healthy cell line; type: cell-based; conditions: Mus musculus, NIH3T3, 24 h incubation
Description: NIH/3T3 cells were incubated in Dulbecco’s modified Eagle’s medium (DMEM) (Sigma-Aldrich, St. Louis, MO), added with fetal calf serum, penicillin (100 IU/mL), streptomycin ([…]), and 7.5% NaHCO3 at 37 °C in a humidified atmosphere of 95% air and 5% CO2. NIH/3T3 cells were seeded into the 96-well plates at a density of 1 × 10^4 cells. After 24 h of incubating period, the culture media were removed, and test compounds were added. After 24 h of incubation period, colorimetric measurements were performed by a microplate reader (Biotek) at 540 nm. Inhibition % at all concentrations was determined using the formula below, and the IC50 values were calculated from a dose–response curve obtained by plotting the percentage inhibition versus the log concentration with the use of Microsoft Excel 2013.

[8] = test system: Candida albicans ATCC 24433; assay: Anticandidal broth microdilution (EUCAST EDef 7.1), MIC90; type: cell-based; conditions: Candida albicans, ATCC24433, C. albicans ATCC 24433; read-out: MIC90
Excerpt: as §3

Candida krusei ATCC 6258 = assay: as above; type: cell-based; conditions: Pichia kudriavzevii, ATCC6258, C. krusei ATCC 6258; read-out: MIC90
Excerpt: as §3

[9] = test system: Candida parapsilosis ATCC 22019; assay: as above; type: cell-based; conditions: Lodderomyces parapsilosis, ATCC22019, C. parapsilosis ATCC 22019; read-out: MIC90
Excerpt: as §3

[10] = molecular target: T2, Lanosterol 14α-demethylase (LMD, CYP51A1) (Candida glabrata, UniProt P50859); assay: LDM (CYP51A1) inhibition by LC-MS-MS quantification of ergosterol level; type: cell-based; conditions: C. glabrata
T2 construct: tested against Candida strains via the determination of ergosterol production; endogenous in cells; host or cells: C. glabrata (ATCC 90030)
T2 sequence (P50859 whole entry): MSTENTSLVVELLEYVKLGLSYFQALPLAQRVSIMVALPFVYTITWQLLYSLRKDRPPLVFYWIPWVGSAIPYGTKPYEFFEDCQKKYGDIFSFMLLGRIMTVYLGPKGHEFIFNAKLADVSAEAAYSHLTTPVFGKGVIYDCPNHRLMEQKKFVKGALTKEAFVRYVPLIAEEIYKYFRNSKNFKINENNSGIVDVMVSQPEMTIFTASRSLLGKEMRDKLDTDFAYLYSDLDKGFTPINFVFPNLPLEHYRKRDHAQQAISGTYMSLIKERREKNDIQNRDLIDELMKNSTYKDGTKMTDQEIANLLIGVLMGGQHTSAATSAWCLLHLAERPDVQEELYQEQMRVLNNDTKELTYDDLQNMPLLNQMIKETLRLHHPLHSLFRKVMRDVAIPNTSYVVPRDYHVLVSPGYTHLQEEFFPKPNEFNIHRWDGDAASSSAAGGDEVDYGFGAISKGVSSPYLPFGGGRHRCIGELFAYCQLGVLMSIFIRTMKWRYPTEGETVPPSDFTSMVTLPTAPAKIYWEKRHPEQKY
Description: as §1, §2

For COc1ccc2nc(Cl)c(C=NNc3nc(-c4ccncc4)cs3)cc2c1 [4l], the melting point was 250 to 257 °C, the “effect on ergosterol production / LMD enzyme inhibition (in words)” value ([1]; C. parapsilosis) was “showed their anticandidal activity via LMD enzyme inhibition” and the “CYP51A1 Inhibition%” value ([1]; C. parapsilosis, 0.06 μg/mL) was 40.328 ± 1.326%. For the same compound, the “CYP51A1 Inhibition%” value ([1]; C. parapsilosis, 0.24 μg/mL) was 56.137 ± 0.928%, the “CYP51A1 Inhibition%” value ([1]; C. parapsilosis, 0.98 μg/mL) was 62.949 ± 2.626% and the IC50 [2] was 0.042 ± 0.002 µM. The MIC90 (C. glabrata ATCC 90030) was 1.95 µg/mL (≈ 4.93 µM), the MIC90 [3] was > 1000 µg/mL and the MIC90 [4] was > 1000 µg/mL. The MIC90 (E. coli ATCC 25922) was > 1000 µg/mL, the MIC90 [5] was > 1000 µg/mL and the MIC90 [6] was > 1000 µg/mL. The MIC90 [7] was > 1000 µg/mL, the IC50 (NIH/3T3 cells) was > 1000 µM and the MIC90 [8] was 1.95 µg/mL (≈ 4.93 µM). The MIC90 (Candida krusei ATCC 6258) was > 1000 µg/mL and the MIC90 [9] was 1.95 µg/mL (≈ 4.93 µM).

With COc1ccc2nc(Cl)c(/C=N/Nc3nc(-c4cccc([N+](=O)[O-])c4)cs3)cc2c1 [4i] the melting point was 212 to 214 °C, the “effect on ergosterol production / LMD enzyme inhibition (in words)” value ([1]; C. krusei) was “did not decrease the ergosterol production compared to the standard drugs” and the “CYP51A1 Inhibition%” value ([1]; C. krusei, 0.06 μg/mL) was 11.662 ± 0.479%. For the same compound, the “CYP51A1 Inhibition%” value ([1]; C. krusei, 0.24 μg/mL) was 14.178 ± 0.655%, the “CYP51A1 Inhibition%” value ([1]; C. krusei, 0.98 μg/mL) was 18.361 ± 0.767% and the IC50 [2] was 0.033 ± 0.001 µM. For the same compound, the MIC90 (C. glabrata ATCC 90030) was 1.95 µg/mL (≈ 4.43 µM), the MIC90 [3] was > 1000 µg/mL and the MIC90 [4] was > 1000 µg/mL. The MIC90 (E. coli ATCC 25922) was > 1000 µg/mL, the MIC90 [5] was > 1000 µg/mL and the MIC90 [6] was > 1000 µg/mL. For the same compound, the MIC90 [7] was > 1000 µg/mL, the IC50 (NIH/3T3 cells) was 8.54 ± 0.26 µM and the MIC90 [8] was 1.95 µg/mL (≈ 4.43 µM). The MIC90 (Candida krusei ATCC 6258) was 1.95 µg/mL (≈ 4.43 µM) and the MIC90 [9] was 1.95 µg/mL (≈ 4.43 µM).

In the case of COc1ccc2nc(Cl)c(C=NNc3nc(-c4ccc(C)cc4)cs3)cc2c1 [4f], the melting point is reported as 194 to 196 °C, the “effect on ergosterol production / LMD enzyme inhibition (in words)” value [10] is reported as “showed their anticandidal activity via LMD enzyme inhibition” and the inhibition at 0.06 µg/mL ([10]; 0.06 μg/mL, read-out: CYP51A1 Inhibition%) is reported as 42.1 ± 1.56%. For the same compound, the inhibition at 0.24 µg/mL ([10]; 0.24 μg/mL, read-out: CYP51A1 Inhibition%) was 53.8 ± 2.39%, the inhibition at 0.98 µg/mL ([10]; 0.98 μg/mL, read-out: CYP51A1 Inhibition%) was 65.1 ± 1.68% and the MIC90 (C. glabrata ATCC 90030) was < 0.06 µg/mL. For the same compound, the MIC90 [3] was > 1000 µg/mL, the MIC90 [4] was > 1000 µg/mL and the MIC90 (E. coli ATCC 25922) was > 1000 µg/mL. The MIC90 [5] was > 1000 µg/mL, the MIC90 [6] was > 1000 µg/mL and the MIC90 [7] was > 1000 µg/mL. The IC50 (NIH/3T3 cells) was > 1000 µM, the MIC90 [8] was > 1000 µg/mL and the MIC90 (Candida krusei ATCC 6258) was 3.91 µg/mL (≈ 9.56 µM). It also gave an MIC90 [9] of 3.91 µg/mL (≈ 9.56 µM).

With COc1ccc2nc(Cl)c(C=NNc3nc(-c4cccc(F)c4)cs3)cc2c1 [4j] the melting point was 221 to 223 °C, the “effect on ergosterol production / LMD enzyme inhibition (in words)” value ([1]; C. parapsilosis) was “showed their anticandidal activity via LMD enzyme inhibition” and the “CYP51A1 Inhibition%” value ([1]; C. parapsilosis, 0.06 μg/mL) was 41.867 ± 0.968%. The “CYP51A1 Inhibition%” value ([1]; C. parapsilosis, 0.24 μg/mL) was 55.281 ± 1.174%, the “CYP51A1 Inhibition%” value ([1]; C. parapsilosis, 0.98 μg/mL) was 63.508 ± 1.948% and the IC50 [2] was 0.047 ± 0.001 µM. The MIC90 (C. glabrata ATCC 90030) was > 1000 µg/mL, the MIC90 [3] was > 1000 µg/mL and the MIC90 [4] was > 1000 µg/mL. The MIC90 (E. coli ATCC 25922) was > 1000 µg/mL, the MIC90 [5] was > 1000 µg/mL and the MIC90 [6] was > 1000 µg/mL. For the same compound, the MIC90 [7] was > 1000 µg/mL, the IC50 (NIH/3T3 cells) was 10 ± 0.39 µM and the MIC90 [8] was > 1000 µg/mL. The MIC90 (Candida krusei ATCC 6258) was 62.5 µg/mL (≈ 151 µM) and the MIC90 [9] was < 0.06 µg/mL.

From paper PMC9835529, “Investigation of Novel Quinoline–Thiazole Derivatives as Antimicrobial Agents: In Vitro and In Silico Approaches” (ACS Omega, 2022)
